Values of other authors in patent US20050150424A1, “Ink composition and inkjet recording method” (FUJI PHOTO FILM CO., LTD., priority 2003, published 2005).
Like-named read-outs stand apart in the source and are kept apart here.

Conditions: in water at 25° C.

## C=CC(=O)O [acrylic acid]
  pKa: 3.6

## C=C(C)C(=O)OCCOP(=O)(O)O [ethylene glycol methacrylate phosphate]
  pKa: 2.5

## C=C(C)C(=O)O [methacrylic acid]
  pKa: 3.6

## C=C(C)C(=O)OCCOC(=O)c1ccccc1C(=O)O [2-methacryloyloxyethyl phthalate]
  pKa: 4.0

## CCCCC(CC)C(=O)O (centres unmarked) [2-Ethylhexanoic acid]
Table 4
  pKa: 2-Ethylhexanoic acid (pKa: 4.1)
